Source: US12246008B2, “4-amino or 4-alkoxy-substituted aryl sulfonamide compounds with selective activity in voltage-gated sodium channels” (Merck Sharp & Dohme LLC, priority 2018, dated 2025)
Where two headings read alike, the source gives them in different places.

Experiments:
Assay in all cases: Qube automated patch-clamp assay, inhibition of sodium current
Format in all cases: cell-based
[1] = target: T1, human Nav1.6 channels stably expressed in HEK 293 cells (Homo sapiens, UniProt Q9UQD0); conditions: holding potential −65 mV; max concentration tested 33750 nM
T1 construct: expressed in transfected cells; host or cells: HEK 293
Method: (§1) Qube™ Experimental Procedure:
(§2) Compounds were tested on human Nav1.7 and Nav1.6 channels stably expressed in HEK 293 cells. […] Cells were sealed on a planar substrate using the multihole technology. Cells expressing human Nav1.7 channels were held at −75 mV or −80 mV. Cells expressing human Nav1.6 channels were held at −65 mV. A train of 6 consecutive test pulses to −10 mV, preceded by 8 s prepulses to −115 mV, was applied at a frequency of 0.1 Hz before and after compound addition. Cells in each Qchip well were incubated in compound for 5 minutes before measuring inhibition. Peak currents were measured in control conditions and after compound addition. The following recording solutions were used (mM). External Nav1.6: 150 NaCl, 2 CaCl2), 5 KCl, 1 Mg Cl2, 10 HEPES, 12 Dextrose; external Nav1.7: 40 NaCl, 120 NMDG, 1 KCl, 0.5 MgCl2, 5 HEPES, 2.7 CaCl2); internal: 120 CsF, 30 CsCl, 10 EGTA, 5 HEPES, 5 NaF, 2 MgCl2. Compounds were prepared as 10 mM stock solutions in DMSO. 10 point compound titrations were generated using the Echo acoustic liquid handling instrument and glass coated 384 well plates. The final DMSO concentration in the assay was 0.3%. For all electrophysiology experiments, offline analysis was used to determine percent inhibition as a function of drug concentration. IC50 values were determined by fitting to the Hill equation.
(§3) The various compounds in EXAMPLES 1 through 43 and TABLE 2 exemplified above were assayed for activity and selectivity using the foregoing Qube® technique. The results are reported in TABLE 3 in a format expressing the identification of the compound with reference EXAMPLE followed by the observed potency in nM for NaV1.7, NaV1.6 and NaV1.5. NA signifies not applicable and the max concentration tested is 33750 nM.

[2] = target: T2, human Nav1.7 channels stably expressed in HEK 293 cells (Homo sapiens, UniProt Q15858); conditions: max concentration tested 33750 nM, read-out: NaV1.7 (nM)
T2 construct: expressed in transfected cells; host or cells: HEK 293
Method: as §1, §2, §3

NaV1.5 = NaV1.5 (Homo sapiens, UniProt Q14524); conditions: holding potential −80 mV; max concentration tested 33750 nM
Method: as §2, §3

[3] = holding potential −75 mV, −75 mV
[4] = holding potential −80 mV, −80 mV

T1 sequence (Q9UQD0 whole entry): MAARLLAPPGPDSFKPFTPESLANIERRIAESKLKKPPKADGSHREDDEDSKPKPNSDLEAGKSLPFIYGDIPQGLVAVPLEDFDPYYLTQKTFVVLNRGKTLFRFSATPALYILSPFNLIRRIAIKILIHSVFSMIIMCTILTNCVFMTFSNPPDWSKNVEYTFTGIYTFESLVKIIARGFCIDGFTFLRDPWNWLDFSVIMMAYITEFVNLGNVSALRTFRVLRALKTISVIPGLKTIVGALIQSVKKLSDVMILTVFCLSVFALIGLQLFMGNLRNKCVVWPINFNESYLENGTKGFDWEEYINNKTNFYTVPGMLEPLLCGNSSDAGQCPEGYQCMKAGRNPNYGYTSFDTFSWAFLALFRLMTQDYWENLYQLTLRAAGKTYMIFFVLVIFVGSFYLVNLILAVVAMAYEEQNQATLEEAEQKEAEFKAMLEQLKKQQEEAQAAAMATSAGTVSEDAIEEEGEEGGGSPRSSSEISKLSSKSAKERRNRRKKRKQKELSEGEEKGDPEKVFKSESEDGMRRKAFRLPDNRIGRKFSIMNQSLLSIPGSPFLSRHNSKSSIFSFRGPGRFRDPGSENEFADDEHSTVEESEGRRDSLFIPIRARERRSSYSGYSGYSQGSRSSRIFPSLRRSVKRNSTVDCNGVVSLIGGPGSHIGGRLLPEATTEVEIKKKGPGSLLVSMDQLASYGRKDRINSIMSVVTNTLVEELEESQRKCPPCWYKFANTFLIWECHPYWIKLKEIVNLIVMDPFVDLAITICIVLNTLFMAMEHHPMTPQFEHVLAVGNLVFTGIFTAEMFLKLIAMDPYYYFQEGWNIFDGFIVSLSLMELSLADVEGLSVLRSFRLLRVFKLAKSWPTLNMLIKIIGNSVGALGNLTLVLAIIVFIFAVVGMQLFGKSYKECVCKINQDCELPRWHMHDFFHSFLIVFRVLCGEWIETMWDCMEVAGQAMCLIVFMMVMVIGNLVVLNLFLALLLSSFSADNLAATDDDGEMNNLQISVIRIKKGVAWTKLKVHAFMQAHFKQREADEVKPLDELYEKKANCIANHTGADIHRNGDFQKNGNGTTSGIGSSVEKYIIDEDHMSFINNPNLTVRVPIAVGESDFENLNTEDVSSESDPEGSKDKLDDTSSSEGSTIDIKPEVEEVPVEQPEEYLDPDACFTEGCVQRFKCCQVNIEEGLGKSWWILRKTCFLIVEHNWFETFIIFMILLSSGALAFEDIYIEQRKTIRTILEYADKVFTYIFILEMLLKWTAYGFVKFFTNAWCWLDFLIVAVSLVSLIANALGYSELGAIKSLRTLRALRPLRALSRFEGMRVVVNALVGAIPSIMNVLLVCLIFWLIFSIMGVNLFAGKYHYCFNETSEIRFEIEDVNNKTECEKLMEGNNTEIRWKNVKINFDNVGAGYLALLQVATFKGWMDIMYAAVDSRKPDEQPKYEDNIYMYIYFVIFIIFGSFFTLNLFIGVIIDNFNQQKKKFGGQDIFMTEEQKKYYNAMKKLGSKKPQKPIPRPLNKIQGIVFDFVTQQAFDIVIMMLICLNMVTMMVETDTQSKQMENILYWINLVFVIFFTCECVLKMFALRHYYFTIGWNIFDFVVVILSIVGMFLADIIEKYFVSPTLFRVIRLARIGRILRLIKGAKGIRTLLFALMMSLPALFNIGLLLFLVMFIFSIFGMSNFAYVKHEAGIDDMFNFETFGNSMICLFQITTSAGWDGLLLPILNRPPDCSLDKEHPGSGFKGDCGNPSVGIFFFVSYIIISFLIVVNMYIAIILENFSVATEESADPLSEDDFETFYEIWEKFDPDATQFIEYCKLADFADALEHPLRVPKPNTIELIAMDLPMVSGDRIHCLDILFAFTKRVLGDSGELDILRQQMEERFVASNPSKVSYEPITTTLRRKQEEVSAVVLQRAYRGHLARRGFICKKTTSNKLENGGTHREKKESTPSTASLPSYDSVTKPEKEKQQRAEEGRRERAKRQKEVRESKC
T2 sequence (Q15858 whole entry): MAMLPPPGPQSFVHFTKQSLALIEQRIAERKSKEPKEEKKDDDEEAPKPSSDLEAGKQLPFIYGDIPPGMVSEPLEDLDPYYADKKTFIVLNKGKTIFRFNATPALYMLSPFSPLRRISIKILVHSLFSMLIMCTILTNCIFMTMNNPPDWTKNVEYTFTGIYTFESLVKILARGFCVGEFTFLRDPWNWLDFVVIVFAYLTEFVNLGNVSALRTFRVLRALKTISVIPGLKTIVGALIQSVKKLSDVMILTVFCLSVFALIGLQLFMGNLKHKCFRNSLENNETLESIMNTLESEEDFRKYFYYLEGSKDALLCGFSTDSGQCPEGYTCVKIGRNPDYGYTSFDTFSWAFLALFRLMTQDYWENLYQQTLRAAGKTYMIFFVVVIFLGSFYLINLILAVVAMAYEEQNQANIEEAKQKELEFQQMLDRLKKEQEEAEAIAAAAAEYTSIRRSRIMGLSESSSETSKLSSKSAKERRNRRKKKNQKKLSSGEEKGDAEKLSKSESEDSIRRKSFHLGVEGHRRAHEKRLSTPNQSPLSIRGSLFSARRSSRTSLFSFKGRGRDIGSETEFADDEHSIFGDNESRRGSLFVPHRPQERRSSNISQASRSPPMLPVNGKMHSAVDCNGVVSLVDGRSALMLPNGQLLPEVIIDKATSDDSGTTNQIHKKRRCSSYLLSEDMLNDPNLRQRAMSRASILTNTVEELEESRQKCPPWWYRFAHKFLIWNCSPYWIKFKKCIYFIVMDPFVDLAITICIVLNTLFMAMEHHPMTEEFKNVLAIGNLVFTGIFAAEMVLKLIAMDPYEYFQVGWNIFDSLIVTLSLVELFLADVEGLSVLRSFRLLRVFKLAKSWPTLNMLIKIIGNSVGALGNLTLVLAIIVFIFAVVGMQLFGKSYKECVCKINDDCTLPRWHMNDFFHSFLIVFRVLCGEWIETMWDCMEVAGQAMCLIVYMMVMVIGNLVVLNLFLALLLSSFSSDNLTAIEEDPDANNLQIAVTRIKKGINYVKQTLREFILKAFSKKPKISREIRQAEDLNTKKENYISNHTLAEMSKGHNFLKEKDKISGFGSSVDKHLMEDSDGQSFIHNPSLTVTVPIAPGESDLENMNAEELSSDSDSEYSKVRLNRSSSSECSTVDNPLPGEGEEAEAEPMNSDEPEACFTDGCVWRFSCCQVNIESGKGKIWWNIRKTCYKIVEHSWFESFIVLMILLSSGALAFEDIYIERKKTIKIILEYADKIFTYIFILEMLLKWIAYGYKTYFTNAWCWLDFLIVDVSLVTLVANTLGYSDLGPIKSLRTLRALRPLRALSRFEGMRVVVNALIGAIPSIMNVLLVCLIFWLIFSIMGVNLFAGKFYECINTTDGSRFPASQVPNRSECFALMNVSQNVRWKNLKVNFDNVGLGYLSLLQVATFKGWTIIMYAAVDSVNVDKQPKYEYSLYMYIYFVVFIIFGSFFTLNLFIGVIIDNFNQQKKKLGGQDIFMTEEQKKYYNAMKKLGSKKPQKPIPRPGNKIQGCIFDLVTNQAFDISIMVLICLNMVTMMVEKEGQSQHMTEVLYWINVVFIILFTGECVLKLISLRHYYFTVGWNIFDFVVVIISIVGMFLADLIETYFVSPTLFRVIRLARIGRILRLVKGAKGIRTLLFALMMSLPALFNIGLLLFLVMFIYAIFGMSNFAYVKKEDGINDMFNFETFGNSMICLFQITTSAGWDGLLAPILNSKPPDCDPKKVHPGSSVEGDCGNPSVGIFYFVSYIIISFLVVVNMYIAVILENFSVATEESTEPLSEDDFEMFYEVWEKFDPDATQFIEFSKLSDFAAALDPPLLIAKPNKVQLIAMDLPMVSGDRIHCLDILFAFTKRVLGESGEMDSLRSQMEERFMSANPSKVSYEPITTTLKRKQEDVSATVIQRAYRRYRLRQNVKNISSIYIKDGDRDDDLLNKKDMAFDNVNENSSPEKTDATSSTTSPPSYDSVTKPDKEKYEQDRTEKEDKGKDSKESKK

Row | IC50 [1] [nM] | IC50 [2, 3] [nM] | IC50 [2, 4] [nM] | Structure (SMILES) | IC50 (NaV1.5) [nM]
1 | > 33800 | 109 | – | CC(C)N(CC(CNc1cc(F)c(S(=O)(=O)Nc2ncns2)cc1F)[C@@H](C)N)C[C@@H](C)N (single isomer, unassigned) [Example 38] | > 33800
2 | > 33800 | – | 210 | CC(C)N(CC(CNc1cc(F)c(S(=O)(=O)Nc2ncns2)cc1F)[C@@H](C)N)C[C@@H](C)N (single isomer, unassigned) [Example 39] | > 33800
3 | > 33800 | – | 306 | C[C@@H](N)[C@@H](CC(C)(C)CCN)C1CCc2cc(S(=O)(=O)Nc3ncns3)c(F)cc2O1 (single isomer, unassigned) [Example 42] | > 33800
4 | > 33800 | – | 57 | C[C@@H](N)C(CNc1cc(F)c(S(=O)(=O)Nc2ncns2)cc1F)CC1CCCC1CN (single isomer, unassigned) [Example 46] | > 33800
5 | > 33800 | – | 165 | C[C@@H](N)C(CNc1cc(F)c(S(=O)(=O)Nc2ncns2)cc1F)CC1(C)CCC1CN (single isomer, unassigned) [Example 53] | > 33800
6 | 224 | – | 10 | C[C@@H](N)C(CNc1cc(F)c(S(=O)(=O)Nc2ncns2)cc1Br)CC1(CCN)CC(F)(F)C1 (single isomer, unassigned) [Example 57] | > 33800
7 | > 33800 | – | 38 | C[C@@H](N)C(CNc1ccc(S(=O)(=O)Nc2ncns2)c(F)c1)CC1(CCN)CC(F)(F)C1 (single isomer, unassigned) [Example 59] | > 33800
8 | > 33800 | – | 12 | C[C@@H](N)C(CNc1cc(F)c(S(=O)(=O)Nc2ncns2)cc1F)CC1CCCCC1CCN (single isomer, unassigned) [Example 60] | 20600
9 | > 33800 | – | 16 | C[C@@H](N)C(CNc1cc(F)c(S(=O)(=O)Nc2ncns2)cc1F)CC1CCCCC1CCN (single isomer, unassigned) [Example 61] | > 33800
10 | > 33800 | – | 56 | C[C@@H](N)C(CNc1cc(F)c(S(=O)(=O)Nc2ncns2)cc1F)CC1CCCCC1CCN (single isomer, unassigned) [Example 62] | > 33800
11 | > 33800 | – | 156 | C[C@@H](N)C(CNc1cc(F)c(S(=O)(=O)Nc2ncns2)cc1F)CC1CCCCC1CCN (single isomer, unassigned) [Example 63] | > 33800
12 | > 33800 | – | 271 | C[C@@H](N)C(CNc1cc(F)c(S(=O)(=O)Nc2ncns2)cc1F)CC1CCCCC1CCN (single isomer, unassigned) [Example 65] | > 33800
13 | > 33800 | – | 229 | C[C@@H](N)C(CNc1cc(F)c(S(=O)(=O)Nc2ncns2)cc1F)CC1CC2(CC2)CN1 (single isomer, unassigned) [Example 72] | > 33800
14 | > 33800 | 72 | – | C[C@@H](N)[C@H](CNc1cc(F)c(S(=O)(=O)Nc2ncns2)cc1F)CC(N)CC(F)(F)F (single isomer, unassigned) [Example 85] | > 33800
15 | > 33800 | 16 | – | CCC(CN)CC(CNc1cc(F)c(S(=O)(=O)Nc2ncns2)cc1F)[C@@H](C)N (single isomer, unassigned) [Example 93] | > 33800
16 | > 33800 | 7 | 28 | C[C@@H](N)C(CNc1cc(F)c(S(=O)(=O)Nc2ncns2)cc1F)C[C@@]1(C)CCC[C@@H]1CN (single isomer, unassigned) [Example 97] | > 33800
17 | 697 | 3 | – | CC(C)C(N)CC(CNc1cc(F)c(S(=O)(=O)Nc2ncns2)cc1Br)[C@@H](C)N (single isomer, unassigned) [Example 109] | 15600
18 | > 33800 | – | 65 | C[C@@H](N)C(CNc1cc(F)c(S(=O)(=O)Nc2ncns2)cc1F)CC1NC2CCC1C2 (single isomer, unassigned) [Example 111] | 13000
19 | 20700 | 118 | – | C[C@H]1NCCNCC(C)(C)C[C@H]1CNc1cc(F)c(S(=O)(=O)Nc2ncns2)cc1Cl [Example 5, 5-chloro-2-fluoro-N-(1,2,4-thiadiazol-5-yl)-4-((((5R,6S)-5,8,8-trimethyl-1,4-diazonan-6-yl)methyl)amino)benzenesulfonamide] | > 33800
20 | > 33800 | 8 | – | C[C@@H](N)[C@H](CNc1cc(F)c(S(=O)(=O)Nc2ncns2)cc1F)CC1(CCN)CCC1 [Example 10, 4-(((2S,3R)-3-amino-2-((1-(2-aminoethyl)cyclobutyl)methyl)butyl)amino)-2,5-difluoro-N-(1,2,4-thiadiazol-5-yl)benzenesulfonamide] | > 33800
21 | > 33800 | 133 | – | C[C@@H](N)[C@H](CNc1cc(F)c(S(=O)(=O)Nc2ccncn2)cc1Cl)CC(C)(C)CCN [Example 12, 4-(((S)-6-amino-2-((R)-1-aminoethyl)-4,4-dimethylhexyl)amino)-5-chloro-2-fluoro-N-(pyrimidin-4-yl)benzenesulfonamide] | > 33800
22 | > 33800 | – | 149 | C[C@@H](N)[C@H](CNc1cc(F)c(S(=O)(=O)Nc2ncns2)cc1F)CC(N)C1(C)CC1 (stereo partly drawn) [Example 18, 4-(((2S)-4-amino-2-((R)-1-aminoethyl)-4-(1-methylcyclopropyl)butyl)amino)-2,5-difluoro-N-(1,2,4-thiadiazol-5-yl)benzenesulfonamide] | > 33800
23 | > 33800 | 41 | – | CC(C)[C@@H](N)[C@H](CNc1cc(F)c(S(=O)(=O)Nc2ncns2)cc1Cl)CC(C)(C)CCN [Example 27, 4-(((S)-6-amino-2-((R)-1-amino-2-methylpropyl)-4,4-dimethylhexyl)amino)-5-chloro-2-fluoro-N-(1,2,4-thiadiazol-5-yl)benzenesulfonamide bis(2,2,2-trifluoroacetate)] | > 33800
24 | > 33800 | 34 | – | CC(C)(CCN)C[C@@H](CNc1cc(F)c(S(=O)(=O)Nc2ncns2)cc1F)[C@H](N)C1CC1 [Example 28, 4-(((S)-6-amino-2-((R)-amino(cyclopropyl)methyl)-4,4-dimethylhexyl)amino)-2,5-difluoro-N-(1,2,4-thiadiazol-5-yl)benzenesulfonamide] | > 33800
25 | > 33800 | 95 | – | CC(C)(CCN)C[C@@H](CNc1cc(F)c(S(=O)(=O)Nc2ncns2)cc1Cl)[C@H](N)CC1CC1 [Example 29, 4-(((S)-6-amino-2-((R)-1-amino-2-cyclopropylethyl)-4,4-dimethylhexyl)amino)-5-chloro-2-fluoro-N-(1,2,4-thiadiazol-5-yl)benzenesulfonamide bis(2,2,2-trifluoroacetate)] | > 33800
26 | > 33800 | 77 | – | C[C@@H](N)[C@H](CNc1ncc(S(=O)(=O)Nc2ncns2)cc1Br)CC(C)(C)CCN [Example 30, 6-(((S)-6-amino-2-((R)-1-aminoethyl)-4,4-dimethylhexyl)amino)-5-bromo-N-(1,2,4-thiadiazol-5-yl)pyridine-3-sulfonamide] | > 33800
27 | > 33800 | 19 | – | Cc1cc(NC[C@H](CC(C)(C)CCN)[C@@H](C)N)c(Cl)cc1S(=O)(=O)Nc1ncns1 [Example 32, 4-(((S)-6-amino-2-((R)-1-aminoethyl)-4,4-dimethylhexyl)amino)-5-chloro-2-methyl-N-(1,2,4-thiadiazol-5-yl)benzenesulfonamide] | 20700
28 | 11600 | – | 17 | C[C@@H](N)[C@H](CNc1cc(F)c(S(=O)(=O)Nc2ncns2)cc1-c1nccs1)CC(C)(C)CCN [Example 40, 4-(((S)-6-amino-2-((R)-1-aminoethyl)-4,4-dimethylhexyl)amino)-2-fluoro-N-(1,2,4-thiadiazol-5-yl)-5-(thiazol-2-yl)benzenesulfonamide] | > 33800
29 | > 33800 | – | 61 | C[C@@H](N)[C@H](CNc1cc(F)c(S(=O)(=O)Nc2ncns2)cc1F)CC1(CCN(C)C)CCC1 [Example 43, 4-(((2S,3R)-3-amino-2-((1-(2-(dimethylamino)ethyl)cyclobutyl)methyl)butyl)amino)-2,5-difluoro-N-(1,2,4-thiadiazol-5-yl)benzenesulfonamide] | > 33800
